The results in this text go back to EP0082498A2, “Beta-lactam compounds and process for the preparation thereof” (SAGAMI CHEMICAL RESEARCH CENTER, priority 1981, dated 1983).

Common to all, as to assay: Antibacterial activity, minimum inhibition concentration (MIC)
What all share (type): cell-based

For assay [1], the system named is Escherichia coli NIHJ-JC-2. The protocol: (§1) Antibacterial activities of the compounds according to this invention, which had been prepared in the preceding Examples, were measured according to the method prescribed by The Committee of Amendment of "The method for measurement of the minimum inhibition concentration", The Chemotherapy Association, Japan (See Chemotherapy, Vol. 29, No. 1, pp. 76 ~ 79 (1981)).
(§2) The test results are shown in terms of the minimum inhibition concentration (MIC) (unit: µg/mℓ) in the following Tables 1 to 4.

Assay [2] concerns Proteus morganii IFO 3848. The conditions noted are these: for MIC: Morganella morganii. The protocol: as §1, §2
The test system of assay [3] is Pseudomonas aeruginosa NCTC 10490. The conditions noted are these: NCTC10490, Table 2. Here is the method:
as §1, §2

Assay [4] has as its system Staphylococcus aureus FDA 209 PJC-1. Here is the method: as §1, §2
The subject of assay [5] is Klebsiella pneumoniae PCI-602. The conditions noted are these: PCI602, Table 3. The protocol: as §1, §2
Assay [6] deals with Proteus mirabillis IFO 3849. The conditions noted are these: Table 3. Here is the method: as §1, §2
Assay [7] relates to Salmonella typhimurium IID-971. The conditions noted are these: Salmonella typhimurium IID-971; for MIC: Salmonella enterica, read-out: minimum inhibition concentration (MIC). The protocol: as §1, §2
Assay [8] has as its system Salmonella typhimrium 901. The protocol:
as §1, §2

For assay [9], the system named is Staphylococcus aureus MS 353. The conditions noted are these: for MIC: Staphylococcus aureus. The protocol: as §1, §2
The mark [10] stands for this setting: IFO3848, Table 2, Proteus morganii IFO-3848, read-out: minimum inhibition concentration (MIC).
The mark [11] stands for this setting: Table 4, Salmonella typhimrium 901, read-out: minimum inhibition concentration (MIC).
Where [12] appears, read: MS353, Table 4, Staphylococcus aureus MS 353, read-out: minimum inhibition concentration (MIC).
Setting [13] is: IFO3848, Table 4, Proteus morganii IFO 3848, read-out: minimum inhibition concentration (MIC).
The mark [14] stands for this setting: IFO3848, Table 1, Proteus morganii IFO 3848, read-out: minimum inhibition concentration (MIC).
[15] abbreviates: MS353, Table 1, Staphylococcus aureus MS 353, read-out: minimum inhibition concentration (MIC).

Converted amounts (≈) assume the structure as drawn. Structures can show the parent of a compound that is named as a salt. Where two headings read alike, the source gives them in different places. Some results are limits rather than exact numbers.

On to `CCSc1nnc(SCC2=C(C(=O)O)N3C(=O)C(NC(=O)C(=CCl)c4csc(N)n4)C3SC2)s1` (single isomer, unassigned) [Example 22, 7-[2-Chloromethylene-2-(2-aminothiazol-4-yl)acetamido]-3-(2-ethylthio-l,3,4-thiadiazol-5-yl)thiomethyl-3-cephem-4-carboxylic acid hydrochloride], for which the MIC in assay [1] (NIHJJC2, Table 2) was 0.2 µg/mL; in assay [2] (setting [10]), no more than 0.0063 µg/mL; in [3] it was 1.56 µg/mL; in assay [4] (FDA209, Table 2), 0.2 µg/mL.

In the case of `Cn1nnnc1SCC1=C(C(=O)O)N2C(=O)C(NC(=O)C(=CCl)c3csc(N)n3)C2SC1` (single isomer, unassigned) [Example 27, sodium 7-[2-chloromethylene-2-(2-aminothiazol-4-yl)acetamido]-3-(1-methyl-1H-tetrazol-5-yl)thiomethyl-3-cephem-4-carboxylate], the MIC in [1] (NIHJJC2, Table 3) is 0.2 µg/mL; in assay [5], less than 0.00625 µg/mL; in [6], 0.2 µg/mL; in assay [7] (Table 3), 0.78 µg/mL; in [4] (FDA209, Table 3), 0.78 µg/mL.

Regarding `NC(=O)Cn1nnnc1SCC1=C(C(=O)O)N2C(=O)C(NC(=O)C(=CCl)c3csc(N)n3)C2SC1` (single isomer, unassigned) [Example 29, sodium 7-[2-chloromethylene-2-(2-aminothiazol-4-yl)acetamido]-3-(1-carbamoylmethyl-1,2,3,4-tetrazol-5-yl)thiomethyl-3-cephem-4-carboxylate], the MIC in assay [8] (setting [11]) worked out at 0.1 µg/mL; in assay [9] (setting [12]), 0.78 µg/mL.

As for `COC(=O)Cn1nnnc1SCC1=C(C(=O)O)N2C(=O)C(NC(=O)C(=CCl)c3csc(N)n3)C2SC1` (single isomer, unassigned) [Example 30, disodium 7-[2-chloromethylene-2-(2-aminothiazol-4-yl)acetamido]-3-(l-methoxycarbonylmethyl-1,2,3,4-tetrazol-5-yl)thiomethyl-3-cephem-4-carboxylate], the results for the MIC in assay [8] (setting [11]) and in assay [9] (setting [12]) were 0.2 µg/mL and 0.78 µg/mL, respectively.

Take `Nc1nc(C(=CCl)C(=O)NC2C(=O)N3C(C(=O)O)=C(CSc4nnnn4CCO)CSC23)cs1` (single isomer, unassigned) [Example 31]: the figures for the MIC in assay [2] (setting [13]), in assay [8] (setting [11]) and in assay [9] (setting [12]) were no more than 0.00625 µg/mL, 0.39 µg/mL (≈ 0.716 µM) and 0.78 µg/mL (≈ 1.43 µM), respectively.

Turning to `N#CCn1nnnc1SCC1=C(C(=O)O)N2C(=O)C(NC(=O)C(=CCl)c3csc(N)n3)C2SC1` (single isomer, unassigned) [Example 32, sodiun 7-[2-chloromethylene-2-(2-aminothiazol-4-yl)acetamido]-3-(l-cyanomethyl-l,2,3,4-tetrazol-5-yl)thiomethyl-3-cephem-4-carboxylate], the MIC turned out to be 0.0125 µg/mL (≈ 0.0231 µM) in assay [2] (setting [13]), 0.78 µg/mL (≈ 1.44 µM) in [8] (setting [11]) and 1.56 µg/mL (≈ 2.89 µM) in [9] (setting [12]).

On to `Nc1nc(C(=CCl)C(=O)NC2C(=O)N3C(C(=O)O)=C(CSc4cnns4)CSC23)cs1` (single isomer, unassigned) [Example 33, sodium 7-[2-chloromethylene-2-(2-aminothiazol-4-yl)acetamido]-3-(1,2,3-thiadiazol-5-yl)thiomethyl-3-cephem-4-carboxylate], for which the MIC in assay [2] (setting [13]) is no more than 0.00625 µg/mL; in assay [8] (setting [11]), 0.2 µg/mL; in assay [9] (setting [12]), 0.1 µg/mL.

For `Nc1nc(C(=CCl)C(=O)NC2C(=O)N3C(C(=O)O)=C(CSc4cnn[nH]4)CSC23)cs1` (single isomer, unassigned) [Example 34, sodium7-[2-chloramethylene-2-(2-aminothiazol-4-yl)acetamido]-3-(l,2,3-triazol-5-yl)thiomethyl-3-cephem-4-carboxylate], the figures for the MIC in assay [2] (setting [13]), in [8] (setting [11]) and in assay [9] (setting [12]) were 0.0125 µg/mL, 0.78 µg/mL and 0.78 µg/mL, respectively.

With `Cn1ncc(=O)nc1SCC1=C(C(=O)O)N2C(=O)C(NC(=O)C(=CCl)c3csc(N)n3)C2SC1` (single isomer, unassigned) [Example 36, sodium 7-[2-chloromethylene-2-(2-aminothiazol-4-yl)acetamido]-3-(2-dihydro-2-methyl-5-oxo-as-triazine-3-yl)thiomethyl-3-cephem-4-carboxylate], the MIC was no more than 0.00625 µg/mL in [2] (setting [13]), 0.39 µg/mL in assay [8] (setting [11]) and 0.39 µg/mL in assay [9] (setting [12]).

On to `Nc1nc(C(=CI)C(=O)NC2C(=O)N3C(C(=O)O)=C(CSc4nncs4)CS[C@H]23)cs1` (single isomer, unassigned) [Example 37, 7-[2-Iodomethylene-2-(2-aminothiazol-4-yl)acetamido]-3-(1,3,4-thiadiazol-2-yl)thiomethyl-3-cephem-4-carboxylic acid], for which the MIC is no more than 0.00313 µg/mL in assay [2] (setting [13]), 0.39 µg/mL (≈ 0.641 µM) in assay [8] (setting [11]) and 0.2 µg/mL (≈ 0.329 µM) in assay [9] (setting [12]).

For the compound `CC1(C)S[C@@H]2C(NC(=O)C(=CCl)c3csc(N)n3)C(=O)N2[C@H]1C(=O)[O-].[Na+]` (single isomer, unassigned) [Example 38, Sodium 6-[2-chloromethylene-2-(2-aminothiazol-4-yl)acetamido]penicillanate], the MIC in assay [2] (IFO3848, read-out: minimum inhibition concentration (MIC)) was found to be 0.05 µg/mL; in [8] (Salmonella, 901, read-out: minimum inhibition concentration (MIC)), 3.12 µg/mL; in assay [9] (MS353, read-out: minimum inhibition concentration (MIC)), 0.2 µg/mL.

On to `Cn1nnnc1SCC1=C(C(=O)O)N2C(=O)C(NC(=O)C(=CCl)c3cnc(N)s3)C2SC1` (stereo not drawn) [Example 7, sodium 7-[2-chloromethylene-2-(2-aminothiazol-5-yl)acetamido]-3-(l-methyl-lH-tetrazol-5-yl)thiomethyl-3-cephem-4-carboxylate], for which the values for the MIC in [2] (setting [14]), in assay [7] (Table 1) and in [9] (setting [15]) were 1.56 µg/mL, 1.56 µg/mL and 0.39 µg/mL, respectively.

On to `CCSC=C(C(=O)NC1C(=O)N2C(C(=O)O)=C(CSc3nnnn3C)CSC12)c1csc(N)n1` (stereo not drawn) [Example 10, sodium 7-[2-ethylmercaptomethylene-2-(2-aminothiazol-4-yl)acetamido]-3-(l-methyl-lH-tetrazol-5-yl)thiomethyl-3-cephem-4-carboxylate], for which the results for the MIC in assay [2] (setting [14]), in [7] (Table 1) and in assay [9] (setting [15]) were no more than 0.006 µg/mL, no more than 0.006 µg/mL and 1.56 µg/mL, respectively.

In the case of `CCSC=C(C(=O)NC1C(=O)N2C(C(=O)O)=C(CSc3nnnn3C)CSC12)c1csc(N)n1` (stereo not drawn) [Example 11, 7-[2-ethylmercaptomethylene-2-(2-aminothiazol-4-yl)-acetamido]-3-(l-methyl-lH-tetrazol-5-yl)thiomethyl-3-cephem-4-carboxylic acid], the “minimum inhibition concentration (MIC)” value in [2] (Table 1, Proteus morganii IFO 3848) is no more than 0.006 µg/mL; in [7] (Table 1), no more than 0.006 µg/mL; in [9] (Table 1, Staphylococcus aureus MS 353), 0.78 µg/mL (≈ 1.44 µM).

Regarding `CSC=C(C(=O)NC1C(=O)N2C(C(=O)O)=C(CSc3nnnn3C)CSC12)c1csc(N)n1` (stereo not drawn) [Example 12, 7-[2-Methylmercaptomethylene-2-(2-aminothiazol-4-yl)-acetamido]-3-(l-methyl-lH-tetrazol-5-yl)thiomethyl-3-cephem-4-carboxylic acid], the MIC in assay [2] (setting [14]) is no more than 0.006 µg/mL; in [7] (Table 1), no more than 0.006 µg/mL; in assay [9] (setting [15]), 1.56 µg/mL (≈ 2.96 µM).

As to `Cn1nnnc1SCC1=C(C(=O)O)N2C(=O)C(NC(=O)C(=CBr)c3csc(N)n3)C2SC1` (stereo not drawn) [Example 21, 7-[2-Bromomethylene-2-(2-aminothiazol-4-yl)acetamido]-3-(l-methyl-lH-tetrazol-5-yl)thiomethyl-3-cephem-4-carboxylic acid], the MIC in assay [2] (setting [14]) is 0.0125 µg/mL (≈ 0.0223 µM); in [7] (Table 1), no more than 0.006 µg/mL; in assay [9] (setting [15]) it was 0.2 µg/mL (≈ 0.357 µM).

For `Nc1nc(C(=CBr)C(=O)NC2C(=O)N3C(C(=O)O)=C(CSc4nncs4)CS[C@H]23)cs1` (stereo partly drawn) [Example 25, 7-[2-Bromomethylene-2-(2-aminothiazol-4-yl)acetamido]-3-(1,3,4-thiadiazol-2-yl)thiomethyl-3-cephem-4-carboxylic acid], the MIC in assay [1] (NIHJJC2, Table 2) was 0.1 µg/mL (≈ 0.178 µM); in [2] (setting [10]) it was no more than 0.0063 µg/mL; in assay [3], 0.2 µg/mL (≈ 0.356 µM); in assay [4] (FDA209, Table 2) it was 0.2 µg/mL (≈ 0.356 µM).

Regarding `Cc1nnc(SCC2=C(C(=O)O)N3C(=O)C(NC(=O)C(=CBr)c4csc(N)n4)C3SC2)s1` (stereo not drawn) [Example 26, 7-[2-Bromomethylene-2-(2-aminothiazol-4-yl)acetamido]-3-(2-methyl-1,3,4-thiadiazol-5-yl)thiomethy1-3-cephem-4-carboxylic acid], the MIC in assay [1] (NIHJJC2, Table 2) was 0.1 µg/mL (≈ 0.174 µM); in assay [2] (setting [10]), no more than 0.0063 µg/mL; in [3], 0.39 µg/mL (≈ 0.678 µM); in assay [4] (FDA209, Table 2) it was 0.39 µg/mL (≈ 0.678 µM).

With “sodium 7-[2-chloromethylene-2-(2-aminothiazol-4-yl)-acetamido]-3-(2-hydroxycarbonylmethylthio-1,3,4-thiadia- zol-5-yl)thiomethyl-3-cephem-4-carboxylate [Example 35]”, the “minimum inhibition concentration (MIC)” value is no more than 0.00625 µg/mL in assay [2] (Table 4, Proteus morganii IFO 3848); 0.78 µg/mL in assay [8] (Table 4, Salmonella typhimrium 901); 0.78 µg/mL in [9] (Table 4, Staphylococcus aureus MS 353).
